These are literature values, as cited in patent US20190144909A1, “METHODS OF MODULATING BCKDH” (NESTEC S.A., priority 2016, published 2019).

Entries after “also recorded” stand apart in the source; their conditions may differ. Where two headings read alike, the source gives them in different places.

Data set [1] concerns branched-chain alpha-keto acid dehydrogenase kinase (BCKDH kinase).
Data set [2] deals with branched-chain alpha-keto acid dehydrogenase E1 B subunit (BCKDHB).
The test system of data set [3] is branched-chain alpha-keto acid dehydrogenase E1 A subunit (BCKDHA).
The subject of another data set is BCKDH kinase. The note with it: Shimomura et al. (2006) J. Nutr. 136: 250S-253S.
[4] abbreviates: BCKDHA, Table 1b, from Comparative Toxicogenomics Database.
Setting [5] is: BCKDH kinase, Table 2, from Comparative Toxicogenomics Database.
Setting [6] is: BCKDHB, Table 1a, from Comparative Toxicogenomics Database.

`CCN(CC)N=O` [Diethylnitrosamine]: the “Interaction Actions” value in data set [1] is “affects cotreatment/; also recorded: affects expression”; in data set [2], “increases expression”.
For `CCNc1nc(Cl)nc(NC(C)C)n1` [Atrazine], the “Interaction Actions” value is given as “increases expression” in data set [3] (setting [4]) and “decreases expression” in data set [1] (setting [5]).
Turning to `NC(=O)N1c2ccccc2C=Cc2ccccc21` [Carbamazepine, reference compound], the “Interaction Actions” value in data set [3] (setting [4]) is “affects expression”.
With `ClC(Cl)(Cl)Cl` [Carbon Tetrachloride], the “Interaction Actions” value in data set [3] is reported as “increases expression”.
On to `C#CC1(O)CC[C@H]2[C@@H]3C(O)C=C4CC(O)CC[C@]4(C)[C@H]3CC[C@@]21C` (stereo partly shown) [17-ethynyl-5-androstene-3,7,17-triol], for which the “Interaction Actions” value in data set [3] (setting [4]) is given as “affects binding”.
`c1cc2ccc3ccc4ccc5cccc6c(c1)c2c3c4c56` [1,12-benzoperylene]: in data set [3], the “Interaction Actions” value is on record as “increases expression”.
With `Clc1cc2c(cc1Cl)Oc1cc(Cl)c(Cl)cc1O2`, the “Interaction Actions” value in data set [3] is recorded as “affects expression; also recorded: affects cotreatment/; also recorded: increases expression”; in data set [1], “affects reaction/; also recorded: decreases expression; also recorded: affects expression”; in data set [2] it was “affects expression”.
`O=c1[nH]cc(F)c(=O)[nH]1` [Fluorouracil, reference compound]: the “Interaction Actions” value in data set [3] (setting [4]) was “affects expression”.
Turning to `C=CC1(C)OC(=O)N(c2cc(Cl)cc(Cl)c2)C1=O` (stereo not shown) [Vinclozolin], the “Interaction Actions” value in data set [3] (setting [4]) is “increases expression”.
Turning to Tunicamycin [reference compound], the figures for the “Interaction Actions” value in data set [3] and in data set [1] were “increases expression” and “decreases expression”, respectively.
Turning to `CC(C)CC(Cl)C(=O)O` (stereo not drawn) [α-chloroisocaproic acid], the “inhibitor of BCKDH kinase” value in the data set with BCKDH kinase was “most potent known inhibitor of BCKDH kinase”.
For `[Cl-].[Cl-].[Co+2]` [Cobaltous chloride], in data set [1], the “Interaction Actions” value is “decreases expression”.
As for `Cc1cccc(Nc2cc(Cl)nc(SCC(=O)O)n2)c1C` [pirinixic acid, reference compound], the “Interaction Actions” value in data set [3] (setting [4]) and in data set [2] (setting [6]) was “increases expression” throughout.
In the case of `OCl` [Hypochlorous Acid], the “Interaction Actions” value in data set [1] (setting [5]) was “decreases expression”.
In the case of `CC12CC1(C)C(=O)N(c1cc(Cl)cc(Cl)c1)C2=O` (stereo not shown) [Procymidone], the “Interaction Actions” value in data set [1] (setting [5]) was “decreases expression”.
In the case of `CCCC(CCC)C(=O)O` [Valproic Acid, reference compound], the “Interaction Actions” value is given as “affects expression” in data set [3] (setting [4]), “affects expression” in data set [1] (setting [5]) and “affects expression; also recorded: increases expression” in data set [2] (setting [6]).
In the case of `[CH3][Hg][Cl]` [Methylmercuric chloride], the “Interaction Actions” value in data set [3] and in data set [2] was “increases expression” each time.
For `c1ccc2c(c1)cc1ccc3cccc4ccc2c1c34` [Benzo(a)pyrene], the “Interaction Actions” value in data set [2] (setting [6]) is “affects expression/; also recorded: affects reaction; also recorded: increases expression”.
In the case of `C[C@@H]1Cc2c(Cl)cc(C(=O)N[C@@H](Cc3ccccc3)C(=O)O)c(O)c2C(=O)O1` [Ochratoxin A], in data set [1], the “Interaction Actions” value is reported as “decreases expression”.
As for `CN[C@H](CC(C)C)C(=O)N[C@H]1C(=O)N[C@@H](CC(N)=O)C(=O)N[C@H]2C(=O)N[C@H]3C(=O)N[C@H](C(=O)N[C@H](C(=O)O)c4cc(O)cc(O)c4-c4cc3ccc4O)[C@H](O)c3ccc(c(Cl)c3)Oc3cc2cc(c3O[C@@H]2O[C@H](CO)[C@@H](O)[C@H](O)[C@H]2O[C@H]2C[C@](C)(N)[C@H](O)[C@H](C)O2)Oc2ccc(cc2Cl)[C@H]1O` [Vancomycin, reference compound], the “Interaction Actions” value in data set [3] and in data set [2] was “increases expression” in each case.
Consider `OO` [Hydrogen Peroxide], for which the “Interaction Actions” value in data set [1] (setting [5]) is “affects expression”.
Regarding `CC(C)CC(=O)C(=O)O` [α-ketoisocaproic acid], in the data set with BCKDH kinase, the “inhibitor of BCKDH kinase” value is on record as “known physiological inhibitor of BCKDH kinase”.
Turning to `Cl.N` [Ammonium Chloride], the “Interaction Actions” value in data set [3], in data set [1] and in data set [2] was “affects expression” in each case.
As to `C=CC(=C)Cl` [Chloroprene], the “Interaction Actions” value in data set [3] is on record as “increases expression”.
`COCC(=O)O` [Methoxyacetic acid]: in data set [1] (setting [5]), the “Interaction Actions” value is given as “affects expression”.
In the case of `C/C=C(/C)C(=O)O[C@H]1C(C)=C2[C@H]([C@@H]1OC(=O)CCCCCCC)[C@@](C)(OC(C)=O)C[C@H](OC(=O)CCC)[C@@]1(O)[C@H]2OC(=O)[C@@]1(C)O` [Thapsigargin, reference compound], in data set [1] (setting [5]), the “Interaction Actions” value is given as “decreases expression”.
For the molecule `[Na+].[Na+].[O]=[Cr](=[O])([O-])[O][Cr](=[O])(=[O])[O-]` [Sodium bichromate], the “Interaction Actions” value in data set [1] is given as “decreases expression”.
Take `CC(=O)Nc1ccc(O)cc1` [Acetaminophen, reference compound]: the “Interaction Actions” value in data set [3] (setting [4]) is “affects expression; also recorded: increases expression”; in data set [1] (setting [5]), “affects expression”.
As to `OC[C@H]1O[C@@H](Oc2ccc(O)cc2)[C@H](O)[C@@H](O)[C@@H]1O` [Arbutin], the “Interaction Actions” value in data set [1] (setting [5]) is reported as “decreases expression”.
`[Cu]` [Copper]: the “Interaction Actions” value in data set [1] is on record as “affects binding/; also recorded: decreases expression”.
On to `CC(C)(c1ccc(O)cc1)c1ccc(O)cc1` [Bisphenol A], for which the “Interaction Actions” value is recorded as “increases expression” in data set [3] (setting [4]) and “affects expression” in data set [1] (setting [5]).
`CC(C)(Oc1ccc(Cl)cc1)C(=O)O` [Clofibric Acid]: the “Interaction Actions” value in data set [1] (setting [5]) is given as “affects cotreatment/; also recorded: affects expression”.
Regarding `CCCCOC(=O)c1ccccc1C(=O)OCCCC` [Dibutyl Phthalate], in data set [1] (setting [5]), the “Interaction Actions” value is “decreases expression”.
Regarding `CNC1(c2ccccc2Cl)CCCCC1=O` (stereo not shown) [Ketamine, reference compound], the “Interaction Actions” value in data set [3] is “increases expression”.
As to `O=C(NN=C1CCCCC1)C(=O)NN=C1CCCCC1` [Cuprizone, reference compound], the “Interaction Actions” value in data set [2] is “increases expression”.
For `c1ccoc1` [Furan], the “Interaction Actions” value in data set [3] is “affects binding”.
As to potassium chromate(VI), the “Interaction Actions” value in data set [2] was “increases expression”.
For `CC[C@@]1(O)C(=O)OCc2c1cc1n(c2=O)Cc2cc3c(CN(C)C)c(O)ccc3nc2-1` [Topotecan, reference compound], the “Interaction Actions” value in data set [3] (setting [4]) was “affects response”.
